For one data set, the system named is Huh7 (liver). Nature of the data set: Cytotoxicity on human cells, automated nuclei counting: Huh7. It is filed as cell-based. Conditions: Huh-7, exposed 24 h to 48 h, 0.1 to 25 μM. The procedure:
(§1) Cytotoxicity: This method is based on an automated imaging analysis. 4.10^3 cells were cultivated on 96-well plates and left for 24 hours so as to bind, to spread and proliferate.
(§2) All the cell lines were cultivated in a DMEM or RPMI (Invitrogen) medium. All these media were completed with antibiotics (penicillin-streptomycin) (Lonza) and 10% by volume of fetal calf serum (Invitrogen). The cells were cultivated at 37° C. with 5% of CO2. The treatments with the molecules to be tested were carried out with increasing concentrations. The control experiments were also carried out by using suitable dilutions of DMSO (maximum 1% DMSO).

For another data set, the system named is Caco (colon). Nature of the data set: Cytotoxicity on human cells, automated nuclei counting: Caco. Format: cell-based. To be noted: exposed 24 h to 48 h, 0.1 to 25 μM. The procedure:
as §1, §2

For a further data set, the system named is MDA-MB 231 (breast). Nature of the data set: Cytotoxicity on human cells, automated nuclei counting: MDA-MB 231. Format: cell-based. To be noted: MDA-MB 231 cells, exposed 24 h to 48 h, 0.1 to 25 μM. The procedure: as §1, §2
For another data set, the system named is HCT 116 (colon). Nature of the data set: Cytotoxicity on human cells, automated nuclei counting: HCT 116. It is filed as cell-based. To be noted: HCT 116 cells, exposed 24 h to 48 h, 0.1 to 25 μM. The procedure:
as §1, §2

A further data set has as its system PC3 (prostate). Nature of the data set: Cytotoxicity on human cells, automated nuclei counting: PC3. It is filed as cell-based. Conditions: PC-3, exposed 24 h to 48 h, 0.1 to 25 μM. The procedure: as §1, §2
Another data set has as its system NCI (lung). Nature of the data set: Cytotoxicity on human cells, automated nuclei counting: NCI. To be noted: exposed 24 h to 48 h, 0.1 to 25 μM. It is filed as cell-based. The procedure: as §1, §2
The test system of a further data set is fibroblast. Nature of the data set: Cytotoxicity on human cells, automated nuclei counting: fibroblast. It is filed as cell-based. Conditions: exposed 24 h to 48 h, 0.1 to 25 μM. The procedure: as §1, §2
The next data set concerns the target T1, CDK5/D25 (Homo sapiens, UniProt Q00535).
T1 construct: made in house
Nature of the data set: CDK5 kinase inhibition (33P-ATP, histone H1). It is filed as biochemical. Conditions: buffer C, 30° C., 15 μM ATP, read-out: IC50 μM Kinases CDK5. The procedure: The protein kinase inhibition activities of the compounds of the invention are tested according to the following general procedure:
Buffer C: 60 mM β-glycerophosphate, 15 mM p-nitrophenyl-phosphate, 25 mM Mops (pH 7.2), 5 mM EGTA, 15 mM mgCl2, 1 mM DTT, 1 mM sodium vanadate and 1 mM phenylphosphate.
The controls were made with suitable dilutions of DMSO.
ATP (3.000 Ci/mmol.; 10 mCi/mL) in a final volume of 30 μL. After 30 mins of incubation at 30° C., 25 μL of supernatant aliquots were deposited on phosphocellulose Whatman P81 paper pieces of 2.5×3 cm, and after 20 seconds, the filters were washed five times (for at least 5 minutes each time) in a solution of 10 mL of phosphoric acid/1 litre of water. The wet filters were counted in the presence of 1 mL of scintillation fluid ACS (Amersham).

Broadly, the IC50 is the concentration at which inhibition is half-maximal. As a reminder, the melting point is the temperature, or range, at which the solid turns liquid.

T1 sequence (Q00535 whole entry): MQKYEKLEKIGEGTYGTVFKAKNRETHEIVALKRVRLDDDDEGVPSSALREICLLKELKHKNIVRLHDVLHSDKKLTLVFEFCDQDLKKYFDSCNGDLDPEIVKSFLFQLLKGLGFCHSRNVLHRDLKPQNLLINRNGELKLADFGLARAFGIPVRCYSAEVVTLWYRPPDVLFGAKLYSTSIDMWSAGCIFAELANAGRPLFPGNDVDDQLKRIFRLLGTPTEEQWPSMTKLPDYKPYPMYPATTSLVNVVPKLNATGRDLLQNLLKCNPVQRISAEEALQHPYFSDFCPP
T1 sequence (Q15078 99-307 partner limits assumed): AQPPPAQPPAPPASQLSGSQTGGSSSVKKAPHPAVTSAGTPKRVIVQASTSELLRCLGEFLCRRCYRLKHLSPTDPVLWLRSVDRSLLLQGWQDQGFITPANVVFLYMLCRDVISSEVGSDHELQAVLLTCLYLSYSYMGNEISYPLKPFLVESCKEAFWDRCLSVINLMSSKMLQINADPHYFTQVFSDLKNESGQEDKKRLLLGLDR

`O=C(Nc1cccc(Br)n1)Nc1cccc2c1C1CC3(CCN1C2=O)SCCS3` (stereo not drawn) [Compound 21, 1-(6-Bromopyridin-2-yl)-3-(6′-oxo-3′,4′,6′,10b′-tetrahydro-1′H-spiro[[1,3]dithiolane-2,2′-pyrido[2,1-a]isoindole]-10′-yl)urea] registered a melting point of 170 °C. In the data set with Huh7 (liver), this compound yielded a half-inhibitory concentration (IC50) of 2 µM. Besides, the IC50 in the data set on Caco (colon) amounted to 3 µM. This compound displayed an IC50 in the data set with MDA-MB 231 (breast) of 4 µM. In addition, 2.5 µM corresponded to half-maximal inhibition in the data set on HCT 116 (colon) (IC50). Also, 4 µM corresponded to half-maximal inhibition in the data set with PC3 (prostate) (IC50). The same compound had an IC50 in the data set on NCI (lung) of 6 µM. Besides, half-maximal inhibition in the data set on fibroblast (IC50) was put at 9 µM. Moreover, the IC50 on CDK5/D25 was over 10 µM.
For `O=C(Nc1ccccn1)Nc1cccc2c1C1CC3(CCN1C2=O)OCCO3` (stereo not drawn) [Compound 28, 1-(6′-Oxo-3′,4′,6′,10b′-tetrahydro-1′H-spiro[[1,3]dioxolane-2,2′-pyrido[2,1-a]isoindole]-10′-yl)-3-(pyridin-2-yl)urea], the 50% inhibitory concentration (IC50) stood at 1 µM with Huh7 (liver); 0.6 µM in the data set with Caco (colon); 1 µM in the data set with MDA-MB 231 (breast); 0.6 µM in the data set with HCT 116 (colon); 1.5 µM in the data set on PC3 (prostate); 4 µM in the data set with NCI (lung). Besides, the IC50 with fibroblast stood at 3 µM; on CDK5/D25, 11 µM.
Turning to `O=C(Nc1cnccn1)Nc1cccc2c1C1CC3(CCN1C2=O)OCCO3` (stereo not drawn) [Compound 29, 1-(6′-Oxo-3′,4′,6′,10b′-tetrahydro-1′H-spiro[[1,3]dioxolane-2,2′-pyrido[2,1-a]isoindole]-10′-yl)-3-(pyrazin-2-yl)urea], the IC50 worked out at 3 µM with Huh7 (liver); 5 µM in the data set on Caco (colon); 3 µM in the data set on MDA-MB 231 (breast); 1.5 µM in the data set on HCT 116 (colon); 5 µM in the data set on PC3 (prostate); 8 µM with NCI (lung). Besides, the IC50 came to 10 µM with fibroblast and 7.1 µM at CDK5/D25.
Turning to `O=C(Nc1ccccn1)Nc1cccc2c1C1CCCCN1C2=O` (stereo not drawn) [Compound 30, 1-(6-oxo-1,2,3,4,6,10b-hexahydropyrido[2,1-a]isoindol-10-yl)-3-(pyridin-2-yl)urea], the IC50 with Huh7 (liver) came to 0.03 µM; in the data set on Caco (colon), 0.1 µM; in the data set with MDA-MB 231 (breast), 0.05 µM; in the data set on PC3 (prostate), 0.1 µM; in the data set with NCI (lung), 0.2 µM; in the data set with fibroblast, 0.2 µM.
The compound `O=C(Nc1cnccn1)Nc1cccc2c1C1CCCCN1C2=O` (stereo not drawn) [Compound 38, 1-(6-Oxo-1,2,3,4,6,10b-hexahydropyrido[2,1-a]isoindol-10-yl)-3-(pyrazin-2-yl)urea] returned a melting point of 215 °C. The IC50 in the data set on Huh7 (liver) was found to be 0.2 µM. Moreover, the IC50 in the data set on Caco (colon) is 1 µM. Moreover, in the data set on MDA-MB 231 (breast), it took 0.2 µM to reach half-maximal inhibition (IC50). In addition, the IC50 with HCT 116 (colon) amounted to 0.1 µM. For the same compound, the IC50 with PC3 (prostate) is 0.3 µM. The compound also showed an IC50 with NCI (lung) of 0.8 µM. Besides, in the data set on fibroblast, the IC50 amounted to 0.8 µM.
In turn, `O=C1c2cccc(NC(=S)Nc3ncccc3Br)c2C2CCCCN12` (stereo not drawn) [Compound 72, 1-(3-bromopyridin-2-yl)-3-(6-oxo-1,2,3,4,6,10b-hexahydropyrido[2,1-a]isoindol-10-yl)thiourea] registered a melting point of 180 °C.
The same measure, in the same setting: in the case of `Cc1ccc(NC(=S)Nc2cccc3c2C2CCCCN2C3=O)nc1` (stereo not drawn) [Compound 73, 1-(5-methylpyridin-2-yl)-3-(6-oxo-1,2,3,4,6,10b-hexahydropyrido[2,1-a]isoindol-10-yl)thiourea] it was 232 °C; in that of `O=C(Nc1cc[nH]n1)Nc1cccc2c1C1CC3(CCN1C2=O)SCCS3` (stereo not drawn) [Compound 77, 1-(6′-Oxo-3′,4′,6′,10b′-tetrahydro-1′H-spiro[[1,3]dithiolane-2,2′-pyrido[2,1-a]isoindole]-10′-yl)-3-(1H-pyrazol-3-yl)urea], 184 °C; in that of `Nc1ccn(C(=O)Nc2cccc3c2C2CCCCN2C3=O)n1` (stereo not drawn) [Compound 78, 3-Amino-N-(6-oxo-1,2,3,4,6,10b-hexahydropyrido[2,1-a]isoindol-10-yl)-1H-pyrazole-1-carboxamide], 166 °C.
The compound `O=C(Nc1cccc2c1C1CCCCN1C2=O)NN1CCCCC1` (stereo not drawn) [Compound 85, N-(6-Oxo-1,2,3,4,6,10b-hexahydropyrido[2,1-a]isoindol-10-yl)-N′-(piperidin-1-yl)urea] showed a melting point of 166 °C.
`O=C(Nc1ccccc1)Nc1cccc2c1C1CCCCN1C2=O` (stereo not drawn) [Compound 87, N-(6-Oxo-1,2,3,4,6,10b-hexahydropyrido[2,1-a]isoindol-10-yl)-N′-phenylurea] returned a melting point of 172 °C.
`O=C(NCc1ccccc1)Nc1cccc2c1C1CCCCN1C2=O` (stereo not drawn) [Compound 92, N-Benzyl-N′-(6-oxo-1,2,3,4,6,10b-hexahydropyrido[2,1-a]isoindol-10-yl)urea] showed a melting point of 183 °C.
`O=C1CCN2C(=O)c3cccc(NC(=O)Nc4ccccn4)c3C2C1` (stereo not drawn) [Compound 97, 1-(2,6-Dioxo-1,2,3,4,6,10b-hexahydropyrido[2,1-a]isoindol-10-yl)-3-(pyridin-2-yl)urea] yielded a melting point of 254 °C. This compound registered an IC50 with Huh7 (liver) of 3 µM. The same compound had an IC50 in the data set on Caco (colon) of 7 µM. The IC50 with MDA-MB 231 (breast) is 3 µM. The same compound yielded an IC50 in the data set on HCT 116 (colon) of 2 µM. Besides, half-maximal inhibition in the data set on PC3 (prostate) (IC50) was put at 5 µM. In the data set with NCI (lung), this compound registered an IC50 of 2 µM. The compound also displayed an IC50 in the data set on fibroblast of 6 µM. Moreover, the IC50 at CDK5/D25 was 3.6 µM.
As for `O=C1CCN2C(=O)c3cccc(NC(=O)Nc4cnccn4)c3C2C1` (stereo not drawn) [Compound 98, 1-(2,6-Dioxo-1,2,3,4,6,10b-hexahydropyrido[2,1-a]isoindol-10-yl)-3-(pyrazin-2-yl)urea], the IC50 is over 25 µM with Huh7 (liver); 25 µM in the data set on Caco (colon); over 25 µM with MDA-MB 231 (breast); 20 µM in the data set on HCT 116 (colon); over 25 µM in the data set on PC3 (prostate); over 25 µM with NCI (lung). The IC50 with fibroblast is over 25 µM; at CDK5/D25, over 10 µM.
On to `O=C1CCN2C(=O)c3cccc(-n4c(=O)[nH]c5cnccc5c4=O)c3C2C1` (stereo not drawn) [Compound 99, 10-(2,4-dioxo-1,2-dihydropyrido[3,4-d]pyrimidin-3(4H)-yl)-1,3,4,10b-tetrahydropyrido[2,1-a]isoindole-2,6-dione], for which the melting point stood at 230 °C.
On the same count and under the same terms, in the case of `Cc1cccnc1NC(=O)Nc1cccc2c1C1CC(=O)CCN1C2=O` (stereo not drawn) [Compound 100, 1-(2,6-dioxo-1,2,3,4,6,10b-hexahydropyrido[2,1-a]isoindol-10-yl)-3-(3-methylpyridin-2-yl)urea] it was over 260 °C; in that of `Cc1cccc(NC(=O)Nc2cccc3c2C2CC(=O)CCN2C3=O)n1` (stereo not drawn) [Compound 101, 1-(2,6-dioxo-1,2,3,4,6,10b-hexahydropyrido[2,1-a]isoindol-10-yl)-3-(6-methyl-pyridin-2-yl)urea], 226 to 228 °C.
Still for that read-out and setting: then `COc1cc(NC(=O)Nc2cccc3c2C2CC(=O)CCN2C3=O)nc2ccccc12` (stereo not drawn) [Compound 102, 1-(2,6-dioxo-1,2,3,4,6,10b-hexahydropyrido[2,1-a]isoindol-10-yl)-3-(4-methoxyquinolin-2-yl)urea], with 223 to 225 °C.
For the compound `O=C(Nc1ccccn1)Nc1cccc2c1C1C[C@@H](O)CCN1C2=O` (stereo partly drawn) [Compound 104, 1-((2S)-2-Hydroxy-6-oxo-1,2,3,4,6,10b-hexahydropyrido[2,1-a]iso-indol-10-yl)-3-(pyridin-2-yl)urea], the melting point turned out to be 220 °C. The same compound showed an IC50 with Huh7 (liver) of 2 µM. Besides, it took 7 µM to reach half-maximal inhibition with Caco (colon) (IC50). In the data set on MDA-MB 231 (breast), this compound returned an IC50 of 3 µM. This compound displayed an IC50 in the data set with HCT 116 (colon) of 1 µM. In the data set on PC3 (prostate), this compound yielded an IC50 of 3 µM. Also, in the data set with NCI (lung), 3 µM corresponded to half-maximal inhibition (IC50). This compound also displayed an IC50 in the data set on fibroblast of 2 µM. The IC50 on CDK5/D25 came to 2.1 µM.
Regarding `O=C1c2cccc(-n3c(=O)[nH]c4cnccc4c3=O)c2C2CC3(CCN12)OCCO3` (stereo not drawn) [Compound 113, 3-(6′-oxo-3′,4′,6′,10b′-tetrahydro-1′H-spiro[[1,3]dioxolane-2,2′-pyrido[2,1-a]isoindole]-10′-yl)pyrido[3,4-d]pyrimidine-2,4(1H,3H)-dione], the melting point worked out at 204 °C.
With `O=C1c2cccc(-n3c(=O)[nH]c4ncccc4c3=O)c2C2CCCCN12` (stereo not drawn) [Compound 117, 3-(6-Oxo-1,2,3,4,6,10b-hexahydro-pyrido[2,1-a]isoindol-10-yl)-1H-pyrido[2,3-d]pyrimidine-2,4-dione], the melting point is over 290 °C.

These data come from patent US20120095022A1, “DERIVATIVES OF 10-AMINO-1,2,3,4-TETRAHYDROPYRIDO[2,1-A]ISOINDOL-6(10BH)-ONES, METHOD FOR PREPARATION THEREOF AND THERAPEUTIC USES THEREOF” (UNIVERSITE D'ORLEANS, priority 2009, published 2012).
